IC50 data for 20 compounds are collected here from patent US20210355104A1, “ADENOSINE RECEPTOR BINDING COMPOUNDS” (Nikang Therapeuticsm Inc., priority 2018, published 2021).

“And” between values parts separate entries of the source, which are not always exact repeats. Identical values can stand only once. Like-named read-outs stand apart in the source and are kept apart here.

One experiment has as its target Adenosine A2A receptor (Homo sapiens, UniProt P29274). Briefly: cAMP assay in 293A cells stably expressing the adenosine A2A receptor (CGS21680 stimulation, HTRF). Format: cell-based. Conditions: 0.1% BSA. The arrangement: expressed in transfected cells; host or cells: 293A cells (Invitrogen, Cat# R705-07) infected with A2A-expressing lentivirus (custom packaged by Biosettia), puromycin selected.

Experiment [1] deals with p-CREB (phosphorylated cAMP response-element binding protein) in human whole blood. Nature of the experiment: p-CREB assay in human whole blood by flow cytometry (NECA stimulation, CD4 staining). Format: cell-based. The method, then: Assay protocol for p-CREB (phosphorylated cAMP response-element binding protein) in human whole blood by flow cytometry
Fresh human whole blood (Biological Specialty Corporation) was added at 100 ul per wellinto a 96-well plate and treated with test compounds (Serial dilutions of 1:3 with starting concentration at 30 uM, 11 concentrations total, in the presence of adenosine deaminase) for one hour at room temperature on a plate shaker. Then 10 ul of 10× NECA (50 uM stock in PBS) and 10 ul of 10 × Rolipram (50 uM stock in PBS) were added, with designated wells for unstimulated (Rolipram+DMSO) and stimulated (Rolipram+NECA+DMSO) conditions. The plates were mixed well and incubated at room temperature for 30 min on a plate shaker. 1× lyse/Fix buffer (5× stock, BD #558049) was warmed to 37° in a water bath. 1200 ul of pre-warmed 1× lyse/Fix buffer was then added to the plate, which was then sealed and mixed by inverting the plate a few times. The plate was then incubated for 30 min at 37° in a water bath. After incubation, the plate was centrifuged at 1600 rpm for 5 min and the supernatant was decanted, then 1200 ul PBS was added and the plate was mixed by inverting a few times followed by centrifuging at 1600 rpm for 5 min and again decanting the supernatant. Then, 200 ul FIX PERM buffer II (BD #558052) was added and the plate was mixed well, then kept on ice for 45 min After spinning the plate at 1600 rpm for 5 min the supernatant was again decanted. Then was added 200 ul staining buffer (BD #554657), and the plate was mixed well and spun at 1600 rpm for 5 min, then the supernatant was again decanted. 200 ul staining buffer was added, the plate was mixed well and the plate was sealed at this step for storage at 4° overnight or until staining. Before staining, the plate was spun at 1600 rpm for 5 min and the supernatant was again decanted. Antibody mix in staining buffer was prepared (75 ul/well, 1:50 dilution for p-CREB antibody from Cell Signaling Tech #14001S, 1:200 dilution for CD4 antibody from BD #566320) and the cells were resuspended in the above antibody mix solution. After mixing well, the plate was incubated (shielded from light) at room temperature for two hours on a plate shaker. It was then spun at 1600 rpm for 5 min and the supernatant was decanted. 200 ul staining buffer was then added to wash cells, and the plate was then mixed by shaking or pipetting. The wash step was repeated at least one more time, and after the final wash, cells were resusptended in 200 ul staining buffer in U bottom plate for flow cytometry analysis.

[2] abbreviates: 293A cells stably expressing A2A receptor, 1 uM CGS21680 stimulation, replicate values separated by /, read-out: cAMP (nM) 0.1% BSA, 1 uM CGS.
[3] abbreviates: Homo sapiens, replicate values separated by /.
Setting [4] is: 293A-A2AR cells, 1 uM CGS, read-out: cAMP (nM) 0.1% BSA, 1 uM CGS.

Sequence of Adenosine A2A receptor (P29274 whole entry): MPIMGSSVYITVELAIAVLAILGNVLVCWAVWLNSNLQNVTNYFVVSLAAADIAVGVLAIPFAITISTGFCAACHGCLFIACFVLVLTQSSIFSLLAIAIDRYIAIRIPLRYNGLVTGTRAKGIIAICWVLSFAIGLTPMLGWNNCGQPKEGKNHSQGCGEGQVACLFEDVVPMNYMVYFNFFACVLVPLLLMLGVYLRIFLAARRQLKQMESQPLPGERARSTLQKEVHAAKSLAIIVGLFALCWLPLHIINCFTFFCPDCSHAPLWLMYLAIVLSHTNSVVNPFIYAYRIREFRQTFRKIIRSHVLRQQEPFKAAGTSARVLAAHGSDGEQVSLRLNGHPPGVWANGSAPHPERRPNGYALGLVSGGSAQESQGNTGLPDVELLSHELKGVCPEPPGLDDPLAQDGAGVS

For the compound `CNCc1cccc(COc2nc(N)nc(-c3ccc(F)cc3)c2-c2cc(C)nc(C(F)F)c2)n1` [Example 403, 5-(2-(difluoromethyl)-6-methylpyridin-4-yl)-4-(4-fluorophenyl)-6-((6-((methylamino)methyl)pyridin-2-yl)methoxy)pyrimidin-2-amine], the IC50 at Adenosine A2A receptor (setting [2]) was 249 nM and 322 nM and 311 nM; in experiment [1] (setting [3]), 108 nM.

On to `Cc1cc(-c2c(OCc3ccnc(OCCO)n3)nc(N)nc2-c2ccc(F)cc2)cc(C(F)F)n1` [Example 297, 2-((4-(((2-amino-5-(2-(difluoromethyl)-6-methylpyridin-4-yl)-6-(4-fluorophenyl)pyrimidin-4-yl)oxy)methyl)pyrimidin-2-yl)oxy)ethan-1-ol], for which the IC50 on Adenosine A2A receptor (setting [4]) is 278 nM and 228 nM; in experiment [1] (Homo sapiens), 521 nM.

For the compound `Cc1cc(-c2c(OCc3nc4ccccc4n3C(F)F)nc(N)nc2-c2ccc(F)cc2)cc(C(F)F)n1` [Example 355, 4-((1-(difluoromethyl)-1H-benzo[d]imidazol-2-yl)methoxy)-5-(2-(difluoromethyl)-6-methylpyridin-4-yl)-6-(4-fluorophenyl)pyrimidin-2-amine], the IC50 is 10.2 nM and 11 nM and 13 nM at Adenosine A2A receptor (setting [4]); 5.7 nM in experiment [1] (Homo sapiens).

Take `CCN(CC)C(=O)COc1nc(N)nc(-c2ccccc2)c1-c1cc(C)nc(C(F)(F)F)c1` [Example 3, 2-((2-amino-5-(2-methyl-6-(trifluoromethyl)pyridin-4-yl)-6-phenylpyrimidin-4-yl)oxy)-N,N-diethylacetamide]: the IC50 is 0.6 nM at Adenosine A2A receptor (293A-A2AR cells, 8 nM CGS, values separated by / are repeat determinations, read-out: cAMP (nM) 0.1% BSA, 8 nM CGS); 69 nM and 24 nM on Adenosine A2A receptor (293A-A2AR cells, 1 uM CGS, values separated by / are repeat determinations, read-out: cAMP (nM) 0.1% BSA, 1 uM CGS); 47 nM in experiment [1] (Homo sapiens, values separated by / are repeat determinations).

Take `Cc1cc(-c2c(OCc3ccnnc3)nc(N)nc2-c2ccc(F)cc2)cc(C(F)F)n1` [Example 285, 5-(2-(difluoromethyl)-6-methylpyridin-4-yl)-4-(4-fluorophenyl)-6-(pyridazin-4-ylmethoxy)pyrimidin-2-amine]: the IC50 at Adenosine A2A receptor (setting [4]) was 378 nM and 272 nM; in experiment [1] (Homo sapiens), 179 nM.

For the compound `Cc1cc(-c2c(OCc3cccc(N(C)C)n3)nc(N)nc2-c2ccc(F)cc2)cc(C(F)F)n1` [Example 282, 5-(2-(difluoromethyl)-6-methylpyridin-4-yl)-4-((6-(dimethylamino)pyridin-2-yl)methoxy)-6-(4-fluorophenyl)pyrimidin-2-amine], the IC50 on Adenosine A2A receptor (setting [4]) is 90 nM and 21 nM and 100 nM; in experiment [1] (Homo sapiens) it was 50 nM.

For the compound `CCn1nccc1COc1nc(N)nc(-c2ccc(F)cc2)c1-c1cc(C)nc(C(F)F)c1` [Example 227, 5-(2-(difluoromethyl)-6-methylpyridin-4-yl)-4-((1-ethyl-1H-pyrazol-5-yl)methoxy)-6-(4-fluorophenyl)pyrimidin-2-amine], the IC50 at Adenosine A2A receptor (setting [4]) is 29 nM and 97 nM and 71 nM; in experiment [1] (Homo sapiens), 17.8 nM.

As for `CNC(=O)CNCc1cccc(COc2nc(N)nc(-c3ccc(F)cc3)c2-c2cc(C)nc(C(F)F)c2)n1` [Example 440, 2-(((6-(((2-amino-5-(2-(difluoromethyl)-6-methylpyridin-4-yl)-6-(4-fluorophenyl)pyrimidin-4-yl)oxy)methyl)pyridin-2-yl)methyl)amino)-N-methylacetamide], the figures for the IC50 (at Adenosine A2A receptor (setting [2]); in experiment [1] (setting [3])) were 215 nM and 95 nM, respectively.

`Cc1cc(-c2c(OCc3nccc4ccccc34)nc(N)nc2-c2ccc(F)cc2)cc(C(F)F)n1` [Example 381, 5-(2-(difluoromethyl)-6-methylpyridin-4-yl)-4-(4-fluorophenyl)-6-(isoquinolin-1-ylmethoxy)pyrimidin-2-amine]: the IC50 at Adenosine A2A receptor (setting [4]) is 16 nM and 3.2 nM; in experiment [1] (Homo sapiens), 36 nM.

`Cc1cc(-c2c(OCc3nc4ccccc4n3C)nc(N)nc2-c2ccc(F)cc2)cc(C(F)F)n1` [Example 314, 5-(2-(difluoromethyl)-6-methylpyridin-4-yl)-4-(4-fluorophenyl)-6-((1-methyl-1H-benzo[d]imidazol-2-yl)methoxy)pyrimidin-2-amine]: the IC50 on Adenosine A2A receptor (setting [4]) is 0.4 nM and 1 nM; in experiment [1] (Homo sapiens), 9.8 nM.

For the compound `Cc1cc(-c2c(OCCN(C)c3cccc(C(C)(C)C#N)n3)nc(N)nc2-c2ccc(F)cc2)cc(C(F)F)n1` [Example 320], the IC50 at Adenosine A2A receptor (setting [4]) is 13 nM and 26 nM and 8.7 nM; in experiment [1] (Homo sapiens) it was 141 nM.

In the case of `Cc1cc(-c2c(OCCc3cccc(C(C)(C)O)n3)nc(N)nc2-c2ccc(F)cc2)cc(C(F)F)n1` [Example 349, 2-(6-(2-((2-amino-5-(2-(difluoromethyl)-6-methylpyridin-4-yl)-6-(4-fluorophenyl)pyrimidin-4-yl)oxy)ethyl)pyridin-2-yl)propan-2-ol], the IC50 is 261 nM and 120 nM at Adenosine A2A receptor (setting [4]); 55 nM in experiment [1] (Homo sapiens).

On to `Cc1cc(-c2c(OCc3ccc(=O)n(C)n3)nc(N)nc2-c2ccc(F)cc2)cc(C(F)F)n1` [Example 422, 6-(((2-amino-5-(2-(difluoromethyl)-6-methylpyridin-4-yl)-6-(4-fluorophenyl)pyrimidin-4-yl)oxy)methyl)-2-methylpyridazin-3(2H)-one], for which the IC50 was 432 nM and 338 nM on Adenosine A2A receptor (setting [2]); 424 nM in experiment [1] (setting [3]).

Take `CNc1cccc(COc2nc(N)nc(-c3ccc(F)cc3)c2-c2cc(C)nc(C(F)F)c2)n1` [Example 379, 5-(2-(difluoromethyl)-6-methylpyridin-4-yl)-4-(4-fluorophenyl)-6-((6-(methylamino)pyridin-2-yl)methoxy)pyrimidin-2-amine]: the IC50 at Adenosine A2A receptor (setting [4]) is 230 nM and 119 nM and 72 nM; in experiment [1], 10.7 nM; in experiment [1] (Homo sapiens), 13.1 nM.

As for `Cc1cc(-c2c(OCc3cccc(NC(CO)CO)n3)nc(N)nc2-c2ccc(F)cc2)cc(C(F)F)n1` [Example 442, 2-((6-(((2-amino-5-(2-(difluoromethyl)-6-methylpyridin-4-yl)-6-(4-fluorophenyl)pyrimidin-4-yl)oxy)methyl)pyridin-2-yl)amino)propane-1,3-diol], the results for the IC50 (on Adenosine A2A receptor (setting [2]); in experiment [1] (setting [3])) were 177 nM and 208 nM, respectively.

Regarding `COC(=O)NCc1cccc(COc2nc(N)nc(-c3ccc(F)cc3)c2-c2cc(C)nc(C(F)F)c2)n1` [Example 410, methyl((6-(((2-amino-5-(2-(difluoromethyl)-6-methylpyridin-4-yl)-6-(4-fluorophenyl)pyrimidin-4-yl)oxy)methyl)pyridin-2-yl)methyl)carbamate], the IC50 at Adenosine A2A receptor (setting [2]) is 97 nM and 142 nM and 124 nM and 178 nM; in experiment [1] (setting [3]) it was 20 nM.

In the case of `CCC(CC)(C(=O)O)c1cccc(COc2nc(N)nc(-c3ccc(F)cc3)c2-c2cc(C)nc(C(F)F)c2)n1` [Example 398, 2-(6-(((2-amino-5-(2-(difluoromethyl)-6-methylpyridin-4-yl)-6-(4-fluorophenyl)pyrimidin-4-yl)oxy)methyl)pyridin-2-yl)-2-ethylbutanoic acid], the IC50 on Adenosine A2A receptor (setting [2]) is 20 nM and 70 nM and 68 nM and 141 nM; in experiment [1] (setting [3]), 43.6 nM; in experiment [1] (replicate values separated by /), 26.2 nM.

Consider `Cc1cc(-c2c(OCc3cccc(C(C)(C)C(=O)O)n3)nc(N)nc2-c2ccc(F)cc2)cc(C(F)(F)F)n1` [Example 385, 2-(6-(((2-amino-6-(4-fluorophenyl)-5-(2-methyl-6-(trifluoromethyl)pyridin-4-yl)pyrimidin-4-yl)oxy)methyl)pyridin-2-yl)-2-methylpropanoic acid], for which the IC50 on Adenosine A2A receptor (setting [4]) was 2330 nM and 1020 nM; in experiment [1] (Homo sapiens), 1460 nM.

As for `Cc1cc(-c2c(OCc3cccc(C4(C(=O)O)CCC4)n3)nc(N)nc2-c2ccc(F)cc2)cc(C(F)F)n1` [Example 392, 1-(6-(((2-amino-5-(2-(difluoromethyl)-6-methylpyridin-4-yl)-6-(4-fluorophenyl)pyrimidin-4-yl)oxy)methyl)pyridin-2-yl)cyclobutane-1-carboxylic acid], the IC50 is 186 nM and 139 nM and 180 nM and 209 nM on Adenosine A2A receptor (setting [4]); 353 nM in experiment [1] (Homo sapiens).

Turning to `CNC(C)(C)c1cccc(COc2nc(N)nc(-c3ccc(F)cc3)c2-c2cc(C)nc(C(F)F)c2)n1` [Example 389, 5-(2-(difluoromethyl)-6-methylpyridin-4-yl)-4-(4-fluorophenyl)-6-((6-(2-(methylamino)propan-2-yl)pyridin-2-yl)methoxy)pyrimidin-2-amine], the IC50 was 231 nM and 114 nM and 100 nM on Adenosine A2A receptor (setting [4]); 60 nM in experiment [1] (Homo sapiens).
